In patent US5795905A, “CRF receptor antagonists and methods relating thereto” (Neurocrine Biosciences, Inc., priority 1995, dated 1998) one finds Ki data, which are given here for 14 compounds.

The structures appear in SMILES notation.

This test has as its target T1, human CRF receptors (Homo sapiens, UniProt P34998).
T1 construct: expressed in transfected cells
T1 sequence (P34998 24-415): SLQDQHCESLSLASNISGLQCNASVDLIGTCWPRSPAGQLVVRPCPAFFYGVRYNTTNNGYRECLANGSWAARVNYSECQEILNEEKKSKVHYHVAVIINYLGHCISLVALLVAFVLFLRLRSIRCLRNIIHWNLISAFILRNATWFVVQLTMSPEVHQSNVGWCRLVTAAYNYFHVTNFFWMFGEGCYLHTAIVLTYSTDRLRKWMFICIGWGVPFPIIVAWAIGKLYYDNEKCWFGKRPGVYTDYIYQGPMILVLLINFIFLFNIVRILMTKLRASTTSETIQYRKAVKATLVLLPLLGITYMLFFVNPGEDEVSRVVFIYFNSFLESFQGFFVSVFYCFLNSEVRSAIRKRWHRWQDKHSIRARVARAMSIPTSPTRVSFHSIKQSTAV
The test can be described thus: standard radioligand binding assay: displacement of radiolabeled CRF ligand from the CRF receptor. The note with it: Table 7 title: Ki ≤ 250 nM; cells stably transfected with human CRF receptors; [125I]tyrosine-ovine CRF ~200 pM; 2 hours at 22° C. The text has this:
The effectiveness of a compound as a CRF receptor antagonist may be determined by various assay methods. Suitable CRF antagonists of this invention are capable of inhibiting the specific binding of CRF to its receptor and antagonizing activities associated with CRF. A compound of structures I through VI may be assessed for activity as a CRF antagonist by one or more generally accepted assays for this purpose, including (but not limited to) the assays disclosed by DeSouza et al. (J. Neuroscience 7:88, 1987) and Battaglia et al. (Synapse 1:572, 1987). […] CRF receptor affinity may be determined by binding studies that measure the ability of a compound to inhibit the binding of a radiolabeled CRF (e.g., [^125 I]tyrosine-CFR) to its receptor (e.g. receptors prepared from rat cerebral cortex membranes). The radioligand binding assay described by DeSouza et al. (supra, 1987) provides an assay for determining a compound's affinity for the CRF receptor. Such activity is typically calculated from the IC50 as the concentration of a compound necessary to displace 50% of the radiolabeled ligand from the receptor, and is reported as a "Ki " value calculated by the following equation: [formula] where L=radioligand and KD =affinity of radioligand for receptor (Cheng and Prusoff, Biochem. Pharmacol. 22:3099, 1973).
Compounds were evaluated for binding activity to the CRF receptor by a standard radioligand binding assay as generally described by DeSouza et al. (J. Neurosci. 7:88-100, 1987). By utilizing various radiolabeled CRF ligands, the assay may be used to evaluate the binding activity of the compounds of the present invention with any CRF receptor subtype. Briefly, the binding assay involves the displacement of a radiolabeled CRF ligand from the CRF receptor.
More specifically, the binding assay was performed in 1.5 ml Eppendorf tubes using approximately 1×10^6 cells per tube stably transfected with human CRF receptors. Each tube received about 0.1 ml of assay buffer (e.g., Dulbecco's phosphate buffered saline, 10 mM magnesium chloride, 20 μM bacitracin) with or without unlabeled sauvagine, urotensin I or CRF (final concentration, 1 μM) to determine nonspecific binding, 0.1 ml of [^125 ] tyrosine--ovine CRF (final concentration ~200 pM or approximately the KD as determined by Scatchard analysis) and 0.1 ml of a membrane suspension of cells containing the CRF receptor. The mixture was incubated for 2 hours at 22° C. followed by the separation of the bound and free radioligand by centrifugation. Following two washes of the pellets, the tubes were cut just above the pellet and monitored in a gamma counter for radioactivity at approximately 80% efficiency. All radioligand binding data was analyzed using the non-linear least-square curve-fitting program LIGAND of Munson and Rodbard (Anal. Biochem. 107:220, […]).
Binding activity corresponds to the concentration (nM) of the compound necessary to displace 50% of the radiolabeled ligand from the receptor.

The Ki is the dissociation constant of the complex between target and ligand, obtained from inhibition or displacement. Read a low Ki as tighter binding. In turn, `CCCN(c1ncc(C)c(-c2ccc(Cl)cc2)n1)C(C1CC1)C1CC1` [II-7] had a Ki not above 0.25 µM.

As to `CCCN(c1nccc(-c2c(Cl)cc(Cl)cc2Cl)n1)C(C1CC1)C1CC1` [II-11, 2-(N-dicyclopropylmethyl-N-propylamino)-4-(2',4',6'-trichlorophenyl)-pyrimidine], the Ki is not above 0.25 µM.

In the case of `CCCN(c1ncc(C)c(-c2ccc(Br)cc2)n1)C(C1CC1)C1CC1` [II-16, 2-(N-dicyclopropylmethyl-N-propylamino)-4-(4'-bromophenyl)-5-methylpyrimidine], the Ki is not above 0.25 µM.

As for `CCCN(c1nccc(-c2c(OC)cc(OC)cc2OC)n1)C(C1CC1)C1CC1` [II-22, 2-(N-dicyclopropylmethyl-N-propylamino)-4-(2',4',6'-trimethoxyphenyl)pyrimidine], the Ki was not above 0.25 µM.

Regarding `CCCN(c1nccc(-c2c(OC)cccc2OC)n1)C(C1CC1)C1CC1` [II-23, 2-(N-dicyclopropylmethyl-N-propyl)-4-(2',6'-dimethoxyphenyl)pyrimidine], the Ki was not above 0.25 µM.

`CCCN(c1nccc(-c2c(C)cc(C)cc2C)n1)C(C1CC1)C1CC1` [II-24] displayed a Ki not above 0.25 µM.

`CCCN(c1ncc(C)c(-c2c(OC)cc(OC)cc2OC)n1)C(C1CC1)C1CC1` [II-25] returned an inhibitory constant (Ki) not above 0.25 µM.

`CCCN(c1ncc(C)c(-c2ccc(Cl)cc2OC)n1)C(C1CC1)C1CC1` [II-32] gave a Ki not above 0.25 µM.

On to `CCCN(c1nccc(-c2c(OC)cc(Cl)cc2OC)n1)C(C1CC1)C1CC1` [II-35], for which the Ki was not above 0.25 µM.

Compound `CCCN(c1ncc(C)c(-c2ccc(OC)cc2OC)n1)C(C1CC1)C1CC1` [II-39] showed an inhibition constant Ki not above 0.25 µM.

The compound `CCCN(c1nccc(-c2ccc(OC)cc2C)n1)C(C1CC1)C1CC1` [II-43] displayed a Ki not above 0.25 µM.

Take `CCCN(c1nc(N)nc(-c2c(Cl)cc(Cl)cc2Cl)n1)C(C1CC1)C1CC1` [IV-2, 2-(2',4',6'-trichlorophenyl)-4-(N-dicyclopropylmethyl-N-propylamino)-6-aminotriazine]: the Ki was not above 0.25 µM.

Consider `CCCN(c1nc(N)nc(-c2ccc(Cl)cc2Cl)n1)C(C1CC1)C1CC1` [IV-7], for which the Ki was not above 0.25 µM.

Regarding `CCCN(c1ncnc(-c2ccc(Cl)cc2Cl)n1)C(C1CC1)C1CC1` [IV-8, 2-(N-dicyclopropylmethyl-N-propylamino)-4-(2',4'-dichlorophenyl)triazine], the Ki is not above 0.25 µM.
